# Paper PMC11913174 (Organic & biomolecular chemistry, 2024)
# Assays:
# [1] = tested on: chloroquine-resistant Dd2 Plasmodium falciparum parasites; test: SYBR Green I antiplasmodial assay against chloroquine-resistant Dd2 parasites; format: cell-based; details: DD2, read-out: EC50 against Dd2
# [2] = tested on: 3D7 (wild-type) parasites; test: Antiplasmodial dose-response against 3D7; format: cell-based; details: Plasmodium falciparum, 3D7, read-out: EC50 against 3D7
compound,measurement,setting,value
COC(=O)[C@H]1[C@H]2C[C@@H]3c4[nH]c5cc(OC)ccc5c4CCN3C[C@H]2C[C@@H](OC(=O)c2cc(OC)c(OC)c(OC)c2)[C@@H]1OC [reserpine],EC50,[1],> 100 µM
same,EC50,[2],> 100 µM
